# Experimental data taken from patent publication US20230073777A1, “CYCLIC-AMP RESPONSE ELEMENT BINDING PROTEIN (CBP) AND/OR ADENOVIRAL E1A BINDING PROTEIN OF 300 KDA (P300) DEGRADATION COMPOUNDS AND METHODS OF USE” (CULLGEN (SHANGHAI), INC., priority 2019, published 2023).
# “Also recorded” adds a separate entry of the source. Like-named read-outs stand apart in the source and are kept apart here.
# Legend:
# P300/CBP = experiment: Immunoblotting of P300/CBP protein levels in LNCaP or 22RV1 cells; type: cell-based; conditions: LNCaP cells, 10 nM single dose (FIG. 8)
# Experimental: Specific exemplary bivalent compounds were characterized in LNCaP or 22RV1 cells. LNCaP or 22RV1 cells that express CBP/P300 proteins were treated with GNE-781 or the bivalent compounds disclosed herein (P-001 to P-174) for indicated hours. Cells were collected, lysed and subject to immunoblotting using an antibody specific to P300 or CBP proteins. Tubulin or vinculin was included as the loading control. DMSO was used as the negative control.
# Cultured cells or tissue chunks were washed with cold PBS once and lysed in cold RIPA buffer supplemented with protease inhibitors and phosphatase inhibitors (Beyotime Biotechnology). The solutions were then incubated at 4° C. for 30 minutes with gentle agitation to fully lyse cells. Cell lysates were centrifuged at 13,000 rpm for 10 minutes at 4° C. and pellets were discarded. Total protein concentrations in the lysates were determined by BCA assays (Beyotime Biotechnology). Cell lysates were mixed with Laemmli loading buffer to 1× and heated at 99° C. for 5 min. Proteins were resolved on SDS-PAGE and visualized by chemiluminescence. Images were taken by a ChemiDoc MP Imaging system (Bio-Rad). Protein bands were quantitated using the accompanied software provided by Bio-Rad.
# P300 [1] = target: T1, P300 (Homo sapiens, UniProt Q09472); experiment: Pharmacodynamic study, P300 in 22RV1 subcutaneous xenograft tumors; type: in vivo, Athymic nude mice; set-up: from tissue; host or cells: 22RV1 subcutaneous xenograft tumours in athymic nude mice; conditions: single dose 40 mg/kg, i.p. or p.o., six hours after administration (FIG. 9)
# Experimental: (§1) In addition to cultured cells, athymic nude mice bearing 22RV1 subcutaneous xenograft tumors at the right flank were intraperitoneally or orally treated with 40 mg/kg bivalent compounds. Six hours after drug administration, animals were sacrificed for immunoblotting of P300 and CBP in homogenized xenograft tumor masses. […] Moreover, ICR mice were orally treated with 40 mg/kg bivalent compounds. Six hours after drug administration, animals were sacrificed for immunoblotting of CBP in homogenized lung tissues.
# (§2) Athymic nude mice bearing 22RV1 subcutaneous xenograft tumors at the right flank were intraperitoneally or orally treated with selected bivalent compounds at 40 mg/kg. Six hours after drug administration, animals were sacrificed, and xenograft tumors were collected for immunoblotting of P300 and CBP.
# (§3) All animal experiments were performed under protocols approved by the Institutional Animal Care and Use Committee (IACUC) of Cullgen. Athymic nude mice (male, 5-weeks old) received 5 million 22RV1 cells subcutaneously inoculated at the right flank site. Twenty days following inoculation, tumors were approximately 500 mm^3 in size. Tumor-bearing mice were treated intraperitoneally or via oral gavage with vehicle or bivalent compounds at indicated doses. 6 hours after drug administration, animals were sacrificed, tumors were resected. Small chunks of tumors were homogenized for immunoblotting of P300/CBP and other proteins as indicated. Alternatively, ICR mice (male, 5-weeks old) were treated via oral gavage with vehicle or bivalent compounds at indicated doses. 6 hours after drug administration, animals were sacrificed, lung tissues were resected. Small chunks of lung tissues were homogenized for immunoblotting of CBP and other proteins as indicated.
# CBP = target: T2, CBP (Homo sapiens, UniProt Q92793); experiment: Pharmacodynamic study, CBP in 22RV1 subcutaneous xenograft tumors; type: in vivo, Athymic nude mice; conditions: single dose 40 mg/kg, i.p. or p.o., six hours after administration (FIG. 9)
# T2 construct: from tissue; host or cells: 22RV1 subcutaneous xenograft tumours in athymic nude mice
# Experimental: as §1, §2, §3
# LNCaP cells = experiment: LNCaP cell viability assay (CellTiter-Glo); type: cell-based; conditions: Homo sapiens, 72 h; LNCaP prostate cancer cell viability inhibition, 3 days, CellTiter-Glo (Table 3)
# Method in brief: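 Three-day treatment of LNCaP cells (5000 per well) across a 12-point, 3-fold dilution series starting at 10 μM. ATP luminescence (CellTiter-Glo) relative to untreated controls gave dose-response curves fitted nonlinearly for IC50.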
# P300 [2] = target: T1, P300; experiment: Immunoblotting of P300 protein levels in LNCaP or 22RV1 cells; type: cell-based; set-up: LNCaP or 22RV1 cells that express CBP/P300 proteins were treated with GNE-781 or the bivalent compounds; endogenous in cells; host or cells: LNCaP (clone FGC) or 22RV1 cells; conditions: for inhibition at 0.01 µM: read-out: Degradation (10 nM)
# Method in brief: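 P300/CBP levels quantified by chemiluminescent immunoblot band densitometry, normalized against tubulin or vinculin loading controls. Lysates came from LNCaP or 22RV1 cells exposed to compounds or DMSO vehicle for indicated times.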
# [3] = percentage of inhibition of p300 at 10 nM (Table 3)
# T1 sequence (Q09472 whole entry): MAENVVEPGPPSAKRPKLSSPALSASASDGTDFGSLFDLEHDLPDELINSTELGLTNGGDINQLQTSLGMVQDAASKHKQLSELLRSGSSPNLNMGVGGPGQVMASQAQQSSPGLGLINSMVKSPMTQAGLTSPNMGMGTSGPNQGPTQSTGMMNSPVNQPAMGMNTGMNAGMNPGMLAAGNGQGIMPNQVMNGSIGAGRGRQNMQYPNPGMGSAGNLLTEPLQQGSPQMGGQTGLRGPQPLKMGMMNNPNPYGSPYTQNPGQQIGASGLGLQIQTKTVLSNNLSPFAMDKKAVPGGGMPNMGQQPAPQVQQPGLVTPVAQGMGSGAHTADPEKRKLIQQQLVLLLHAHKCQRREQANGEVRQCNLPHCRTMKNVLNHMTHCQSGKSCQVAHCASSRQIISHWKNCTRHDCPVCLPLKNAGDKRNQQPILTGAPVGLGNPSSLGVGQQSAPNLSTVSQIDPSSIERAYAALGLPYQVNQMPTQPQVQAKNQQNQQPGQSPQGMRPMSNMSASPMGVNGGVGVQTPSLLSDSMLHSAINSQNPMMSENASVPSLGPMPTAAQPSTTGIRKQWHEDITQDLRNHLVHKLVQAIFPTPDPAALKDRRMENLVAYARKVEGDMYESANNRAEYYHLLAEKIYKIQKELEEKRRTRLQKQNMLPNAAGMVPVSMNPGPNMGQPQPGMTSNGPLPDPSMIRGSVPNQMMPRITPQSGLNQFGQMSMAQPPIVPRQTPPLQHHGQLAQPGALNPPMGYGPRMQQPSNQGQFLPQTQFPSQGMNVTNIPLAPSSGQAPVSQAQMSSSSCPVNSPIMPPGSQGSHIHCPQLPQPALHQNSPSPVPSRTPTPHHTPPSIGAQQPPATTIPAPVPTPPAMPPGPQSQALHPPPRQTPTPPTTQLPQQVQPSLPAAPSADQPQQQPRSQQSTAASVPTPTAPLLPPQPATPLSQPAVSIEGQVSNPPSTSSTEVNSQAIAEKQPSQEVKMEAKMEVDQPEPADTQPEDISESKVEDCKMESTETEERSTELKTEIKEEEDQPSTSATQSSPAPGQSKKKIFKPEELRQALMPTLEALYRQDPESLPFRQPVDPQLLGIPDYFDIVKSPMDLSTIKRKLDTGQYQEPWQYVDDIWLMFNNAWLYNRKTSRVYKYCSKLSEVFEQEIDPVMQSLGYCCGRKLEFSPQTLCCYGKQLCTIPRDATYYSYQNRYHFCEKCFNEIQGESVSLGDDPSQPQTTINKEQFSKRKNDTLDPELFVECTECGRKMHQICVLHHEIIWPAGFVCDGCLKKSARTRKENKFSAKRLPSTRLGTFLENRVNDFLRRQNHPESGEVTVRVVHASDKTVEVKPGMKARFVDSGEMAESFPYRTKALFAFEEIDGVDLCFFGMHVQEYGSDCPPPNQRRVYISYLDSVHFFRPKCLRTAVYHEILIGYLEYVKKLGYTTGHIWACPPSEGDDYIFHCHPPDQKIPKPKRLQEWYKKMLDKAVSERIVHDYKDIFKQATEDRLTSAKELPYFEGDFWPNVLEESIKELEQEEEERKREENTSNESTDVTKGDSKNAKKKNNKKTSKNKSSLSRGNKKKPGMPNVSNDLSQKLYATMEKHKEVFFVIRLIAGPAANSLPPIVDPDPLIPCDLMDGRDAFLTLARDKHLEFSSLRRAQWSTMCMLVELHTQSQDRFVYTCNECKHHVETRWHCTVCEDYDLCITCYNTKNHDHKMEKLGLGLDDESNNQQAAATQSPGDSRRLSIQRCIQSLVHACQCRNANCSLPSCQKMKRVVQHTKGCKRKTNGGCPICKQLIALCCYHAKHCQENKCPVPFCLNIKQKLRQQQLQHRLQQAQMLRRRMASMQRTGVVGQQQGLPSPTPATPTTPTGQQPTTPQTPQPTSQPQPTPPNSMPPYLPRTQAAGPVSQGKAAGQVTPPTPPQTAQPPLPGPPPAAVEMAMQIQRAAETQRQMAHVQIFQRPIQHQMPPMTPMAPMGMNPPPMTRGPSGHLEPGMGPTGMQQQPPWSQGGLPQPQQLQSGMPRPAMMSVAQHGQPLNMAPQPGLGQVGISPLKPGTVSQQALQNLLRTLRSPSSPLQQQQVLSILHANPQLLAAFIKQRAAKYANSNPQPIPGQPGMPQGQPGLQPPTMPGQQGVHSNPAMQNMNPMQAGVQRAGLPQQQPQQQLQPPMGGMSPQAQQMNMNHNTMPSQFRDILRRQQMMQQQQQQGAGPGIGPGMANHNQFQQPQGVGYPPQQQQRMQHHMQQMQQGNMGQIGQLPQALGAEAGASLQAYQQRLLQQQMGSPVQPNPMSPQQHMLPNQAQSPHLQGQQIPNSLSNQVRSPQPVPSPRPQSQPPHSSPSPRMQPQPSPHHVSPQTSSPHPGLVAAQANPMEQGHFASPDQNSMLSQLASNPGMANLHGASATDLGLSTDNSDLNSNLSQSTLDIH
# T2 sequence (Q92793 whole entry): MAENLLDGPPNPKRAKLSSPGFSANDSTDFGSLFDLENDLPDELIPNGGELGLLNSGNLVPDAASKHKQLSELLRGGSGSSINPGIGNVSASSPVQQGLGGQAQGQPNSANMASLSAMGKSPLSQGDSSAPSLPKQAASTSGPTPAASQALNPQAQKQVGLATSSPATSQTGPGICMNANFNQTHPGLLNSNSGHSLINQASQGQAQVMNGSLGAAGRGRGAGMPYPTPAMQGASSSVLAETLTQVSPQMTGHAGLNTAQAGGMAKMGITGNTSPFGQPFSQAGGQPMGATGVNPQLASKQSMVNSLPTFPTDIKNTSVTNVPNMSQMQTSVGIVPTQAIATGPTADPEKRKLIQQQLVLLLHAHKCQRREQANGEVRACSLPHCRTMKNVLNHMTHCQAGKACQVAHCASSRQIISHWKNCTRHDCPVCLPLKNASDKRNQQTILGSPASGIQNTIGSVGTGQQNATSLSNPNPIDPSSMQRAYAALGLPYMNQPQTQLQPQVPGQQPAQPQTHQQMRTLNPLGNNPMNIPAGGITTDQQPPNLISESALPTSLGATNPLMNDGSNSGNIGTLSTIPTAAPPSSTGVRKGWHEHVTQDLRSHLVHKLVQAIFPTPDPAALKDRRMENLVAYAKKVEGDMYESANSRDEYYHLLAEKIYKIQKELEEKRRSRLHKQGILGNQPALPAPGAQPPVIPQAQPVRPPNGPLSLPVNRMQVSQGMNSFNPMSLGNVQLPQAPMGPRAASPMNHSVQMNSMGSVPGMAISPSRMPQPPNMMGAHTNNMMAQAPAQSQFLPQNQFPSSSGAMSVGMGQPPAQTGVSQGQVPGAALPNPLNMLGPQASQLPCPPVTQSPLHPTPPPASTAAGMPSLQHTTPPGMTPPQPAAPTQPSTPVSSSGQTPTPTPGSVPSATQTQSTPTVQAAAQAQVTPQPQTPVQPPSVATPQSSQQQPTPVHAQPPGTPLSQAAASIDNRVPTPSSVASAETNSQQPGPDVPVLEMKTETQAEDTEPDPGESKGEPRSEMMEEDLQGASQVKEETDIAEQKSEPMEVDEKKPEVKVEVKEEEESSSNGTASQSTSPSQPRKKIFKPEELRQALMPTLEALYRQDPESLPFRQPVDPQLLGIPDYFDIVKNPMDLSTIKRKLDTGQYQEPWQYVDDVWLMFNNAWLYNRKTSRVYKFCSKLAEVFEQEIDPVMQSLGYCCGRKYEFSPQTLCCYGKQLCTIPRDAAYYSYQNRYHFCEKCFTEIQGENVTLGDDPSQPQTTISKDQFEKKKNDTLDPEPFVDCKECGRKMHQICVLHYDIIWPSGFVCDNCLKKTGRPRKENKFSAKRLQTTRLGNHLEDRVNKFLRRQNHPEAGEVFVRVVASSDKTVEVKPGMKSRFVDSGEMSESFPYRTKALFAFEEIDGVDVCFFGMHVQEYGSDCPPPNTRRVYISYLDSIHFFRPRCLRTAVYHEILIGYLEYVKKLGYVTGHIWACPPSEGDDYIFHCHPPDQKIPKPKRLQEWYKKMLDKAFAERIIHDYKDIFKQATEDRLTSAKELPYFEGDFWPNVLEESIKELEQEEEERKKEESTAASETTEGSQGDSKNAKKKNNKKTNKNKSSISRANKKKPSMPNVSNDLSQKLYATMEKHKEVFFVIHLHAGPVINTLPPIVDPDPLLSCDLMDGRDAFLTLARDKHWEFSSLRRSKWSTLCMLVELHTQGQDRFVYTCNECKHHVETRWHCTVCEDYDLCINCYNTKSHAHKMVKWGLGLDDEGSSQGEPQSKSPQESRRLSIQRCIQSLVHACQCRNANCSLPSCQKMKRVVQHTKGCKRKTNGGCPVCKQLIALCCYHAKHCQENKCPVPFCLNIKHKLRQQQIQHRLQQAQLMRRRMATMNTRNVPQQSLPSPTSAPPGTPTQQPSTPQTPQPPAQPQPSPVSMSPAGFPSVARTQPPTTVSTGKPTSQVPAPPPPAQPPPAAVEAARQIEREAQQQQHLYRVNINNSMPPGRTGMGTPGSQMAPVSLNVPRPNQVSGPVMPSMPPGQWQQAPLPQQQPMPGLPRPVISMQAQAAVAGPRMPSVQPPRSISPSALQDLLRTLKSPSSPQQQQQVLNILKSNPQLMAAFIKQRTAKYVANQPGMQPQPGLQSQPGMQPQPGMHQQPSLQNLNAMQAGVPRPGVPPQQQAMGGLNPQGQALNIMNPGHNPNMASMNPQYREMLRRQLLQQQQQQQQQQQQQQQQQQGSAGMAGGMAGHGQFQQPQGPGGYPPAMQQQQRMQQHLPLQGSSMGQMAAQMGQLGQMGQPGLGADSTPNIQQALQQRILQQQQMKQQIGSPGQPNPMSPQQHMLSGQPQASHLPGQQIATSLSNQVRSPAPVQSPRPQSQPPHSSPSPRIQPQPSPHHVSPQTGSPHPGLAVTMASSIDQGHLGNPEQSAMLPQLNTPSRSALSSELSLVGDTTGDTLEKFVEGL
Compound,IC50 (LNCaP cells),inhibition at 0.01 µM (P300 [2]; [3]),further results
"CC(=O)N1CCc2c(c(N3CCCc4cc(-c5cnn(C)c5)c(C(F)F)cc43)nn2C2CCN(CCN3CCC(COc4cccc5c4C(=O)N(C4CCC(=O)NC4=O)C5=O)CC3)CC2)C1 (stereo not shown) [P-167, 4-((1-(2-(4-(5-Acetyl-3-(7-(difluoromethyl)-6-(1-methyl-1H-pyrazol-4-yl)-3,4-dihydroquinolin-1(2H)-yl)-4,5,6,7-tetrahydro-1H-pyrazolo[4,3-c]pyridin-1-yl)piperidin-1-yl)ethyl)piperidin-4-yl)methoxy)-2-(2,6-dioxopiperidin-3-yl)isoindoline-1,3-dione]",0.092 µM,–,inhibition at 0.01 µM (P300 [2]): < 20%
"CC(=O)N1CCc2c(c(N3CCCc4cc(-c5cnn(C)c5)c(C(F)F)cc43)nn2C2CCN(C(=O)CN3CCN(CCc4cccc5c4C(=O)N(C4CCC(=O)NC4=O)C5=O)CC3)CC2)C1 (stereo not shown) [P-169, 4-(2-(4-(2-(4-(5-Acetyl-3-(7-(difluoromethyl)-6-(1-methyl-1H-pyrazol-4-yl)-3,4-dihydroquinolin-1(2H)-yl)-4,5,6,7-tetrahydro-1H-pyrazolo[4,3-c]pyridin-1-yl)piperidin-1-yl)-2-oxoethyl)piperazin-1-yl)ethyl)-2-(2,6-dioxopiperidin-3-yl)isoindoline-1,3-dione]",> 0.5 µM,< 20%,–
"CC(=O)N1CCc2c(c(N3CCCc4cc(-c5cnn(C)c5)c(C(F)F)cc43)nn2C2CCN(C(=O)CN3CC(CCNc4cccc5c4C(=O)N(C4CCC(=O)NC4=O)C5=O)C3)CC2)C1 (stereo not shown) [P-170, 4-((2-(1-(2-(4-(5-Acetyl-3-(7-(difluoromethyl)-6-(1-methyl-1H-pyrazol-4-yl)-3,4-dihydroquinolin-1(2H)-yl)-4,5,6,7-tetrahydro-1H-pyrazolo[4,3-c]pyridin-1-yl)piperidin-1-yl)-2-oxoethyl)azetidin-3-yl)ethyl)amino)-2-(2,6-dioxopiperidin-3-yl)isoindoline-1,3-dione]",0.0326 µM,20 to 50%,–
"CC(=O)N1CCc2c(c(N3CCCc4cc(-c5cnn(C)c5)c(C(F)F)cc43)nn2C2CCN(C(=O)CC#CCCNc3cccc4c3C(=O)N(C3CCC(=O)NC3=O)C4=O)CC2)C1 (stereo not shown) [P-171, 4-((6-(4-(5-Acetyl-3-(7-(difluoromethyl)-6-(1-methyl-1H-pyrazol-4-yl)-3,4-dihydroquinolin-1(2H)-yl)-4,5,6,7-tetrahydro-1H-pyrazolo[4,3-c]pyridin-1-yl)piperidin-1-yl)-6-oxohex-3-yn-1-yl)amino)-2-(2,6-dioxopiperidin-3-yl)isoindoline-1,3-dione]",0.253 µM,20 to 50%,–
"CC(=O)N1CCc2c(c(N3CCCc4cc(-c5cnn(C)c5)c(C(F)F)cc43)nn2C2CCN(CCc3ccc(COc4cccc5c4CN(C4CCC(=O)NC4=O)C5=O)cc3)CC2)C1 (stereo not shown) [P-173, 3-(4-((4-(2-(4-(5-acetyl-3-(7-(difluoromethyl)-6-(1-methyl-1H-pyrazol-4-yl)-3,4-dihydroquinolin-1(2H)-yl)-4,5,6,7-tetrahydro-1H-pyrazolo[4,3-c]pyridin-1-yl)piperidin-1-yl)ethyl)benzyl)oxy)-1-oxoisoindolin-2-yl)piperidine-2,6-dione]",0.0034 µM,20 to 50%,–
"CC(=O)N1CCc2c(c(N3CCCc4cc(-c5cnn(C)c5)c(C(F)F)cc43)nn2C2CCN(Cc3ccc(CCOc4cccc5c4CN(C4CCC(=O)NC4=O)C5=O)cc3)CC2)C1 (stereo not shown) [P-174, 3-(4-(4-((4-(5-acetyl-3-(7-(difluoromethyl)-6-(1-methyl-1H-pyrazol-4-yl)-3,4-dihydroquinolin-1(2H)-yl)-4,5,6,7-tetrahydro-1H-pyrazolo[4,3-c]pyridin-1-yl)piperidin-1-yl)methyl)phenethoxy)-1-oxoisoindolin-2-yl)piperidine-2,6-dione]",0.0004 µM,> 80%,–

# Continued, in another order:
IC50 (LNCaP cells),inhibition at 0.01 µM (P300 [2]; [3]),Compound,further results
0.0009 µM,> 80%,"CC(=O)N1CCc2c(c(N3CCCc4cc(-c5cnn(C)c5)c(C(F)F)cc43)nn2C2CCN(C(=O)CCCCCNc3cccc4c3C(=O)N(C3CCC(=O)NC3=O)C4=O)CC2)C1 (stereo not shown) [P-100, 4-((6-(4-(5-acetyl-3-(7-(difluoromethyl)-6-(1-methyl-1H-pyrazol-4-yl)-3,4-dihydroquinolin-1(2H)-yl)-4,5,6,7-tetrahydro-1H-pyrazolo[4,3-c]pyridin-1-yl)piperidin-1-yl)-6-oxohexyl)amino)-2-(2,6-dioxopiperidin-3-yl)isoindoline-1,3-dione]","degradation of P300/CBP in combination with pomalidomide, MG-132, Bortezomib or MLN4924 (P300/CBP): compromised; also recorded: neutralized; P300 protein levels in 22RV1 xenograft tumors (P300 [1]): significantly reducing; CBP protein levels in 22RV1 xenograft tumors (CBP): significantly reducing; P300 protein levels, dependence on interaction with cereblon (P300 [2]; LNCaP or 22RV1 cells, various concentrations (FIG. 7)): reduced P300 protein levels in a concentration-dependent manner"
0.156 µM,< 20%,"CC(=O)N1CCc2c(c(N3CCCc4cc(-c5cnn(C)c5)c(C(F)F)cc43)nn2C2CCN(C(=O)CN3CCC(COc4cccc5c4C(=O)N(C4CCC(=O)NC4=O)C5=O)CC3)CC2)C1 (stereo not shown) [P-168, 4-((1-(2-(4-(5-Acetyl-3-(7-(difluoromethyl)-6-(1-methyl-1H-pyrazol-4-yl)-3,4-dihydroquinolin-1(2H)-yl)-4,5,6,7-tetrahydro-1H-pyrazolo[4,3-c]pyridin-1-yl)piperidin-1-yl)-2-oxoethyl)piperidin-4-yl)methoxy)-2-(2,6-dioxopiperidin-3-yl)isoindoline-1,3-dione]",–
0.0569 µM,20 to 50%,"CC(=O)N1CCc2c(c(N3CCCc4cc(-c5cnn(C)c5)c(C(F)F)cc43)nn2C2CCN(C(=O)CN3CCOC(CCNc4cccc5c4C(=O)N(C4CCC(=O)NC4=O)C5=O)C3)CC2)C1 (stereo not shown) [P-172, 4-((2-(4-(2-(4-(5-Acetyl-3-(7-(difluoromethyl)-6-(1-methyl-1H-pyrazol-4-yl)-3,4-dihydroquinolin-1(2H)-yl)-4,5,6,7-tetrahydro-1H-pyrazolo[4,3-c]pyridin-1-yl)piperidin-1-yl)-2-oxoethyl)morpholin-2-yl)ethyl)amino)-2-(2,6-dioxopiperidin-3-yl)isoindoline-1,3-dione]",–
